Measurements: patent US20140135310A1, “SULPHONAMIDE DERIVATIVES OF ALICYCLIC AMINES FOR THE TREATMENT OF CENTRAL NERVOUS SYSTEM DISEASES” (Adamed Sp. z o.o., priority 2011, published 2014)
Where two headings read alike, the source gives them in different places.

How the values were obtained:
[1] = target: D2 dopaminergic receptors (Homo sapiens, UniProt P14416); experiment: Cellular functional assay, D2 dopaminergic receptors; format: cell-based; conditions: D2S (h), HEK-293 cells; for D2 ag [%]: agonism, percent of control specific agonist response (3 μM dopamine for control); for D2 antag [%]: antagonism, stimulus dopamine (30 nM)
Chain of D2 dopaminergic receptors (P14416 whole entry): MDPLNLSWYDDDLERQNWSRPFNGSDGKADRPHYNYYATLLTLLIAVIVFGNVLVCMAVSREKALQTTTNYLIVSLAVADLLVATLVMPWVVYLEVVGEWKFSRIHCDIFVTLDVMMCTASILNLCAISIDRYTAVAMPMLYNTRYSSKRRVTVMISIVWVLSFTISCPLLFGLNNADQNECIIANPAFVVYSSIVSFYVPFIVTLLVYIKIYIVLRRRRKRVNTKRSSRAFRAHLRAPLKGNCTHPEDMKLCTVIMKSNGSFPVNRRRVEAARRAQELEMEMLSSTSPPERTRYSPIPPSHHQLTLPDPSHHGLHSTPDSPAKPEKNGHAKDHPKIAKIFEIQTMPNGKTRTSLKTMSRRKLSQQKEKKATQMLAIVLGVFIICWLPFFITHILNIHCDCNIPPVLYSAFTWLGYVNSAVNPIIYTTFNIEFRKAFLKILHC
Method in brief: (§1)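 Responses expressed as percent of control specific agonist response; EC50 or IC50 from Hill-equation nonlinear fits of mean replicate concentration-response curves. For antagonists, Kb derived by modified Cheng-Prusoff using reference agonist concentration and its EC50.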

[2] = target: D3 dopaminergic receptors (Homo sapiens, UniProt P35462); experiment: Cellular functional assay, D3 dopaminergic receptors; format: cell-based; conditions: D3 (h), CHO cells; for D3 ag [%]: agonism, percent of control specific agonist response (0.3 μM dopamine for control); for D3 antag [%]: antagonism, stimulus dopamine (10 nM)
Chain of D3 dopaminergic receptors (P35462 whole entry): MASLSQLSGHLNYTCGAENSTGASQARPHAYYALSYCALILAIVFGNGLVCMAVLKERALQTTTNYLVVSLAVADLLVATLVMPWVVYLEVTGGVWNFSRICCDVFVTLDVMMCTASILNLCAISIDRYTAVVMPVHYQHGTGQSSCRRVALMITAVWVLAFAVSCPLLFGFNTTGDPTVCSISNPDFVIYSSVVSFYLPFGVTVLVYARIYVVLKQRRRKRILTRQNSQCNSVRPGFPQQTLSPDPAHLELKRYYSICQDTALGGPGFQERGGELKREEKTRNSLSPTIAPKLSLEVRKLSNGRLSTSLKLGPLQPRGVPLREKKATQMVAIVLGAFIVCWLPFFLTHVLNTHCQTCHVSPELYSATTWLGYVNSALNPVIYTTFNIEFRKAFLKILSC
Method in brief: as §1

[3] = target: 5-HT6 serotoninergic receptors (Homo sapiens, UniProt P50406); experiment: Cellular functional assay, 5-HT6 serotoninergic receptors; format: cell-based; conditions: agonist mode; percent of control specific agonist response
Chain of 5-HT6 serotoninergic receptors (P50406 whole entry): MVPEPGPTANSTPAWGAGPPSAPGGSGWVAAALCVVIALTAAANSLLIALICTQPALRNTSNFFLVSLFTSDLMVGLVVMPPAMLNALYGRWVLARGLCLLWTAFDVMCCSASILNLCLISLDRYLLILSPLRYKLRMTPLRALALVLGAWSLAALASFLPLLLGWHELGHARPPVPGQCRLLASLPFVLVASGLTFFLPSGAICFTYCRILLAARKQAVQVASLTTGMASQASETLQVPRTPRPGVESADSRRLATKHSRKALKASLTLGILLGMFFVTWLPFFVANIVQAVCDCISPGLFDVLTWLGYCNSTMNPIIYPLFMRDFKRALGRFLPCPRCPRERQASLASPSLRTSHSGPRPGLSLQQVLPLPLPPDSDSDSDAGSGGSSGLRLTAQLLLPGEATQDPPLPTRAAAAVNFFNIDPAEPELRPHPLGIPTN
Method in brief: as §1

[4] = target: 5-HT7 serotoninergic receptors (Homo sapiens, UniProt P34969); experiment: Cellular functional assay, 5-HT7 serotoninergic receptors; format: cell-based; conditions: agonist mode; percent of control specific agonist response
Chain of 5-HT7 serotoninergic receptors (P34969 whole entry): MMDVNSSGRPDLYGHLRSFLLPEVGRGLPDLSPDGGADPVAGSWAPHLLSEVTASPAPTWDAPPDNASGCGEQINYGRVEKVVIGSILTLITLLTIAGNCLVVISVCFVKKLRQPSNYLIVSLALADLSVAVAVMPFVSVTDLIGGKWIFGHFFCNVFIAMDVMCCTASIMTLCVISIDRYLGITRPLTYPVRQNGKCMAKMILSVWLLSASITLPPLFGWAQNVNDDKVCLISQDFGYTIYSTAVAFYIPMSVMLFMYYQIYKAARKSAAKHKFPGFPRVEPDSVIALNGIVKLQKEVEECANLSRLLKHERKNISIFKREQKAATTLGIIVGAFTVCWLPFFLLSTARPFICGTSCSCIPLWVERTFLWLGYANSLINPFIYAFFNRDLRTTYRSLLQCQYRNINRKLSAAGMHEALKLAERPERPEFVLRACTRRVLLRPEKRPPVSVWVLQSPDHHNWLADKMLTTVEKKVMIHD
Method in brief: as §1

[5] = target: 5-HT2A serotoninergic receptors (Homo sapiens, UniProt P28223); experiment: Cellular functional assay, 5-HT2A serotoninergic receptors; format: cell-based
Chain of 5-HT2A serotoninergic receptors (P28223 whole entry): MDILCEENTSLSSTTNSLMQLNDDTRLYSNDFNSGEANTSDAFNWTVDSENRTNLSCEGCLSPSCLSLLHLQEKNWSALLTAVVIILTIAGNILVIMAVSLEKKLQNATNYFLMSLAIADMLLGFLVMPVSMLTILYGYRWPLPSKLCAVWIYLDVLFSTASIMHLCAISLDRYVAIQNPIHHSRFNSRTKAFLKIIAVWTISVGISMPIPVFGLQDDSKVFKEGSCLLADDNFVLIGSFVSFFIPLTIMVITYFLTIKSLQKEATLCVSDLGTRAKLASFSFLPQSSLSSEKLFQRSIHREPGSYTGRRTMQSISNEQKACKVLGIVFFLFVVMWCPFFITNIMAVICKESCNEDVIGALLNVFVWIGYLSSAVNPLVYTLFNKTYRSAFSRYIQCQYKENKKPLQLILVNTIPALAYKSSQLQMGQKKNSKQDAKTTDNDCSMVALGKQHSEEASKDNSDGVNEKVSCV
Method in brief: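 Response expressed as percent of control specific agonist response; EC50 or IC50 from Hill-equation non-linear regression on mean replicate values. For antagonists, apparent Kb derived by modified Cheng-Prusoff using reference agonist concentration and its EC50.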

[6] = target: T1, 5-HT1A serotoninergic receptors (Homo sapiens, UniProt P08908); experiment: Cellular functional assay, 5-HT1A serotoninergic receptors; format: cell-based; conditions: agonist mode; percent of control specific agonist response
T1 sequence (P08908 1-422): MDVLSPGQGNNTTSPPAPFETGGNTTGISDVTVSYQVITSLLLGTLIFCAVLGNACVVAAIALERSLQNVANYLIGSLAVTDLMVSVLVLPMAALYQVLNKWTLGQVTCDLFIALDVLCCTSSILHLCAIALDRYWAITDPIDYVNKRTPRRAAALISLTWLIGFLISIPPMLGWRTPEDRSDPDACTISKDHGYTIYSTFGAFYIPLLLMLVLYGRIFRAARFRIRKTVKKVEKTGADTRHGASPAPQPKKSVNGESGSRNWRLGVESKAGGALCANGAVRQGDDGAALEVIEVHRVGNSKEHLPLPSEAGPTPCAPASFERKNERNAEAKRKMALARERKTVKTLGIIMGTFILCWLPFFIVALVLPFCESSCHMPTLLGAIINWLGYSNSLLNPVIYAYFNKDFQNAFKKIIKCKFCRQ
Procedure: (§2) The results are expressed as a percent of control specific agonist response ((measured specific response/control specific agonist response)×100) obtained in the presence of the test compounds.
(§3) The EC50 values (concentration producing a half-maximal specific response) and IC50 values (concentration causing a half-maximal inhibition of the control specific agonist response) were determined by non-linear regression analysis of the concentration-response curves generated with mean replicate values using Hill equation curve fitting (Y=D+[(A−D)/(1+(C/C50)nH)], where Y=specific response, D=minimum specific response, A=maximum specific response, C=compound concentration, and C50=EC50 or IC50, and nH=slope factor). This analysis was performed using a software developed at Cerep (Hill software) and validated by comparison with data generated by the commercial software SigmaPlot® 4.0 for Windows® (© 1997 by SPSS Inc.).
(§4) For the antagonists, the apparent dissociation constants (Kb) were calculated using the modified Cheng Prusoff equation (Kb=IC50/(1+(A/EC50A)), where A=concentration of reference agonist in the assay, and EC50A=EC50 value of the reference agonist).

[7] = target: T2, 5-HT reuptake (rat brain synaptosomes) (Rattus norvegicus, UniProt P31652); experiment: 5-HT reuptake, [3H]5-HT incorporation into rat brain synaptosomes; format: biochemical; conditions: 15 min/37° C., read-out: SERT IC50
T2 construct: measuring [^3H]5-HT incorporation into rat brain synaptosomes; from tissue; host or cells: rat brain synaptosomes
T2 sequence (P31652 whole entry): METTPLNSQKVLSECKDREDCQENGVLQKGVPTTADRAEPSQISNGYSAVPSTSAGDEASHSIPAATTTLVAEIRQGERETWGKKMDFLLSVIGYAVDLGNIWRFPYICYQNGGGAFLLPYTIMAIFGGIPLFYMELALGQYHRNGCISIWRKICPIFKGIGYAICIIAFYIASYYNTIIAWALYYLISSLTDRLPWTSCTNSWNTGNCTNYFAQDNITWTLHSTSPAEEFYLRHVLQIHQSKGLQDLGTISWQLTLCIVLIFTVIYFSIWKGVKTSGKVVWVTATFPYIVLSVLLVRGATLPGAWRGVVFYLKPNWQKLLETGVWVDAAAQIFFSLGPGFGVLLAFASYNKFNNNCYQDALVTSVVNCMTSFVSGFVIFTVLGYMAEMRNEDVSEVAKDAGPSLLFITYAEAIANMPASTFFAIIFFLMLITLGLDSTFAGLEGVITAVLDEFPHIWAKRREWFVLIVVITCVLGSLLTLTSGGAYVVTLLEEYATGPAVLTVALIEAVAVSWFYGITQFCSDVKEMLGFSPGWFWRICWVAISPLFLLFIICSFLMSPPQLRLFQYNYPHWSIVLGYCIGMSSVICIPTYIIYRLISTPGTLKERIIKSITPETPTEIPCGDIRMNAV
Procedure: 5-HT reuptake was tested according to Perovic, S. and Muller, W.E.G. (1995) Arzneim-Forsch. Drug Res., 45: 1145-1148 by measuring [^3H]5-HT incorporation into rat brain synaptosomes. Assay conditions are as follows:
Tracer: [^3H]5-HT (0.2 μCi/ml)
Incubation: 15 min/37° C.

[8] = target: T3, 5-HT2C serotoninergic receptors (Homo sapiens, UniProt P28335); experiment: Cellular functional assay, 5-HT2C serotoninergic receptors; format: cell-based
T3 sequence (P28335 33-458): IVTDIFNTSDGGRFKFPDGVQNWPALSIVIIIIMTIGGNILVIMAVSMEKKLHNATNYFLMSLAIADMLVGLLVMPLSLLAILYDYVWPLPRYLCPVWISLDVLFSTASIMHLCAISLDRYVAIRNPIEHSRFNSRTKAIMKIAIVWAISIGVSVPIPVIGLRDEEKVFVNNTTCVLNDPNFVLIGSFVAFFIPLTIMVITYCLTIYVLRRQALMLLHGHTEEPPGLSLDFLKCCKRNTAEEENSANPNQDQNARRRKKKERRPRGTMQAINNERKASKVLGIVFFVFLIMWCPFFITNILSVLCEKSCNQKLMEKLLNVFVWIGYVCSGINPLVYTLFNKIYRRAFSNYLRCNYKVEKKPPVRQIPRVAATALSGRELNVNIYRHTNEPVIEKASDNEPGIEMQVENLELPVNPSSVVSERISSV
Procedure: as §2, §3, §4

[9] = agonist mode, percent of control specific agonist response

Row | Structure (SMILES) | D2 ag [%] [1] [%] | D2 antag [%] [1] [%] | D3 ag [%] [2] [%] | D3 antag [%] [2] [%] | 5-HT6 ag [%] [3] [%] | 5-HT7 ag [%] [4] [%] | 5-HT2A ag [%] [5, 9] [%] | 5-HT1A ag [%] [6] [%] | 5-HT2A ag [%] [5] [%] | IC50 [7] [nM] | 5-HT2C ag [%] [8, 9] [%] | 5-HT2C antag [%] ([8]; antagonist mode)
1 | Cc1c(S(=O)(=O)NCC2CN(CCCc3noc4cc(F)ccc34)C2)sc2ccc(Cl)cc12 [Compound 131, 5-Chloro-N-[[1-[3-(6-fluoro-1,2-benzoxazol-3-yl)propyl]azetidin-3-yl]-methyl]-3-methyl-benzothiophene-2-sulphonamide] | 5 | 20 | −13 | 55 | 3 | 1 | −2 |  |  |  |  | 
2 | O=S(=O)(NCC1CCN(CCOc2cccc3ccccc23)C1)c1ccc2ccccc2c1 (stereo not drawn) [Compound 124, N-[[1-[2-(1-Naphthyloxy)ethyl]pyrrolidin-3-yl]methyl]naphthalene-2-sulphonamide] | 33 | 44 | 11 | 43 | 7 | 10 |  | 16 |  |  |  | 
3 | Cc1c(S(=O)(=O)NCC2CN(CCCc3noc4cc(F)ccc34)C2)sc2ccc(F)cc12 [Compound 130, 5-Fluoro-N-[[1-[3-(6-fluoro-1,2-benzoxazol-3-yl)propyl]azetidin-3-yl]methyl]-3-methyl-benzothiophene-2-sulphonamide] | 6 | 34 | 5 | 61 | 4 | 0 | 0 |  |  |  |  | 
4 | O=S(=O)(NCC1CN(CCCc2noc3cc(F)ccc23)C1)c1ccc2ccccc2c1 [Compound 134, N-[[1-[3-(6-Fluoro-1,2-benzoxazol-3-yl)propyl]azetidin-3-yl]methyl]-naphthalene-2-sulphonamide] | 6 | 47 |  |  | 4 | 1 |  |  | −3 |  |  | 
5 | Cc1cccc(S(=O)(=O)NC2CCN(CCCc3c[nH]c4ccc(Cl)cc34)C2)c1 (stereo not drawn) [Compound 86, N-[1-[3-(5-chloro-1H-indol-3-yl)propyl]pyrrolidin-3-yl]-3-methyl-benzenesulphonamide] |  |  |  |  |  |  |  |  |  | 17 |  | 
6 | O=S(=O)(NCC1CN(CCOc2cccc3ccccc23)C1)c1ccc2ccccc2c1 [Compound 122, N-[[1-[2-(1-Naphthyloxy)ethyl]azetidin-3-yl]methyl]naphthalene-2-sulphonamide] | 33 | 62 | 38 | 56 | 0 | 21 |  | 35 |  |  | 78 | −10
